Source: patent publication US6274587A, “Tricyclic dihydropyrimidine potassium channel openers” (Abbott Laboratories, priority 1999, dated 2001)

Assays:
[1] = system: potassium channels; assay: Membrane Hyperpolarization (MHP) in Guinea-Pig Bladder (GPB) Cells, FLIPR with DiBAC(4)3; assay type: cell-based; conditions: for EC50: concentration eliciting 50% of the test sample's maximal response; for Maximal Response (% P1075): maximal steady-state hyperpolarization relative to 10 μM P1075 (100%)
Method: Compounds were evaluated for potassium channel opening activity using primary cultured quinea-pig urinary bladder (GPB) cells.
For the preparation of urinary bladder smooth muscle cells, urinary bladders were removed from male quinea-pigs (Hartley, Charles River, Wilmington, Mass.) weighing 300-400 g and placed in ice-cold Ca^2+ -free Krebs solution (Composition, mM: KCl, 2.7; KH2 PO4, 1.5; NaCl, 75; Na2 HPO4, 9.6; Na2 HPO4.7H2 O, 8; MgSO4, 2; glucose, 5; HEPES, 10; pH 7.4). Cells were isolated by enzymatic dissociation as previously described with minor modifications in (Klockner, U. and Isenberg, G., Pflugers Arch. 1985, 405, 329-339), hereby incorporated by reference. The bladder was cut into small sections and incubated in 5 mL of the Kreb's solution containing 1 mg/mL collagenase (Sigma, St. Louis, Mo.) and 0.2 mg/mL pronase (Calbiochem, La Jolla, Calif.) with continuous stirring in a cell incubator for 30 minutes. The mixture was then centrifuged at 1300×g for 5 minutes, and the pellet resuspended in Dulbecco's PBS (GIBCO, Gaithersburg, Md.) and recentrifuged to remove residual enzyme. The cell pellet was resuspended in 5 mL growth media (composition: Dulbecco's modified Eagle's medium supplemented with 10% fetal bovine serum, 100 units/niL penicillin, 100 units/mL streptomycin and […] amphotericin B) and further dissociated by pipetting the suspension through a flame-polished Pasteur pipette and passing it through a polypropylene mesh membrane (Spectrum, Houston, Tex.). The cell density was adjusted to 100,000 cells/mL by resuspension in growth media. Cells were plated in clear-bottomed black 96-well plates (Packard) for membrane potential studies at a density of 20,000 cells/well and maintained in a cell incubator with 90% air: 10% CO2 until confluent. Cells were confirmed to be of smooth muscle type by cytoskeletal staining using a monoclonal mouse anti human-α-smooth muscle actin (Biomeda, Foster City, Calif.).
Functional activity at potassium channels was measured by evaluating changes in membrane potential using the bis-oxonol dye DiBAC(4)3 (Molecular Probes) in a 96-well cell-based kinetic assay system, Fluorescent Imaging Plate Reader (FLIPR) (K. S. Schroeder et al., J. Biomed. Screen., v. 1 pp. 75-81 (1996)), hereby incorporated by reference. DiBAC(4)3 is an anionic potentiometric probe which partitions between cells and extracellular solution in a membrane potential-dependent manner. With increasing membrane potential (for example, K^+ depolarization), the probe further partitions into the cell; this is measured as an increase in fluorescence due to dye interaction with intracellular lipids and proteins. Conversely, decreasing membrane potential (hyperpolarizationby potassium channel openers) evokes a decrease in fluorescence.
Confluent quinea-pig urinary bladder cells cultured in black clear-bottomed96-well plates were rinsed twice with […] assay buffer (composition, mM: HEPES, 20; NaCl, 120; KCl, 2; CaCl2, 2; MgCl2, 1; glucose, 5; pH 7.4 at 25 ° C.) containing 5 μM DiBAC(4)3 and incubated with […] of the buffer in a cell incubator for 30 minutes at 37 ° C. to ensure dye distribution across the membrane. After recording the baseline fluorescence for 5 minutes, the reference or test compounds, prepared at 10 times the concentration in the assay buffer, were added directly to the wells. Changes in fluorescence were monitored for an additional 25 minutes. Hyperpolarization responses were corrected for any background noise and were normalized to the response observed with 10 μM of the reference compound P1075, N"-cyano-N-(tert-pentyl)-N'-(3-pyridinyl)quanidine, which was assigned as 100%. P1075 is a potent opener of smooth muscle KATP channels (Quast et al., Mol. Pharmacol., v. 43 pp. 474-481 (1993)) and was prepared using the procedures described in (Manley, J. Med. Chem. (1992) 35, 2327-2340), hereby incorporated by reference. […]

[2] = system: potassium channel; assay: Functional Potassium Channel Opening Activity in Isolated Bladder Strips (electrically stimulated twitch); conditions: Landrace pig bladder strips; for Index: ED50 of P1075 divided by ED50 of test agonist, averaged over tissues; for Efficacy (% P1075): maximal efficacy relative to P1075, field stimulation 0.05 Hz; for pD2: negative logarithm of ED50
Method: Compounds of the present invention were evaluated for functional potassium channel opening activity using tissue strips obtained from Landrace pig bladders.
Landrace pig bladders were obtained from female Landrace pigs of 9-30 kg. Landrace pigs wer eutanized with an intraperitoneal injection of pentobarbital solution, Somlethal®, J. A. Webster Inc., Sterling Mass. The entire bladder was removed and immediately placed into Krebs Ringer bicarbonate solution (composition, mM: NaCl, 120; NaHCO3, 20; dextrose, 11; KCl, 4.7; CaCl2, 2.5; MgSO4, 1.5; KH2 PO4, 1.2; K2 EDTA, 0.01, equilibrated with 5% CO2 /95% O2 pH 7.4 at 37 ° C.). Propranolol (0.004 mM) was included in all of the assays to block β-adrenoceptors. The trigonal and dome portions were discarded. Strips 3-5 mm wide and 20 mm long were prepared from the remaining tissue cut in a circular fashion. The mucosal layer was removed. One end was fixed to a stationary glass rod and the other to a Grass FT03 transducer at a basal preload of 1.0 gram. Two parallel platinum electrodes were included in the stationary glass rod to provide field stimulation of 0.05 Hz, 0.5 milli-seconds at 20 volts. This low frequency stimulation produced a stable twitch response of 100-500 centigrams. Tissues were allowed to equilibrate for at least 60 minutes and primed with 80 mM KCl. A control concentration response curve (cumulative) was generated for each tissue using the potassium channel opener P1075 as the control agonist. […] After a 60 minute rinsing period, a concentration response curve (cumulative) was generated for the test agonist in the same fashion as that used for the control agonist P1075. The maximal efficacy of each compounds (expressed as % relative to P1075) is reported. The amount of agent necessary to cause 50% of the agent's maximal response (ED50) was calculated using "ALLFIT" (DeLean et al., Am. J. Physiol., 235, E97 (1980)), hereby incorporated by reference, and agonist potencies were expressed as pD2 (the negative logarithm). Agonist potencies were also expressed as an index relative to P1075. The index was calculated by dividing the ED50 for P1075 by the ED50 for the test agonist in a given tissue. Each tissue was used for only one test agonist, and the indices obtained from each tissue were averaged to provide an average index of potency.

[3] = biological target: smooth muscle KATP channels (Rattus norvegicus, UniProt Q63563); conditions: Quast et al., Mol. Pharmacol., v. 43 pp. 474-481 (1993); cited from earlier work
Chain of smooth muscle KATP channels (Q63563 1-1545 isoform Q63563-2): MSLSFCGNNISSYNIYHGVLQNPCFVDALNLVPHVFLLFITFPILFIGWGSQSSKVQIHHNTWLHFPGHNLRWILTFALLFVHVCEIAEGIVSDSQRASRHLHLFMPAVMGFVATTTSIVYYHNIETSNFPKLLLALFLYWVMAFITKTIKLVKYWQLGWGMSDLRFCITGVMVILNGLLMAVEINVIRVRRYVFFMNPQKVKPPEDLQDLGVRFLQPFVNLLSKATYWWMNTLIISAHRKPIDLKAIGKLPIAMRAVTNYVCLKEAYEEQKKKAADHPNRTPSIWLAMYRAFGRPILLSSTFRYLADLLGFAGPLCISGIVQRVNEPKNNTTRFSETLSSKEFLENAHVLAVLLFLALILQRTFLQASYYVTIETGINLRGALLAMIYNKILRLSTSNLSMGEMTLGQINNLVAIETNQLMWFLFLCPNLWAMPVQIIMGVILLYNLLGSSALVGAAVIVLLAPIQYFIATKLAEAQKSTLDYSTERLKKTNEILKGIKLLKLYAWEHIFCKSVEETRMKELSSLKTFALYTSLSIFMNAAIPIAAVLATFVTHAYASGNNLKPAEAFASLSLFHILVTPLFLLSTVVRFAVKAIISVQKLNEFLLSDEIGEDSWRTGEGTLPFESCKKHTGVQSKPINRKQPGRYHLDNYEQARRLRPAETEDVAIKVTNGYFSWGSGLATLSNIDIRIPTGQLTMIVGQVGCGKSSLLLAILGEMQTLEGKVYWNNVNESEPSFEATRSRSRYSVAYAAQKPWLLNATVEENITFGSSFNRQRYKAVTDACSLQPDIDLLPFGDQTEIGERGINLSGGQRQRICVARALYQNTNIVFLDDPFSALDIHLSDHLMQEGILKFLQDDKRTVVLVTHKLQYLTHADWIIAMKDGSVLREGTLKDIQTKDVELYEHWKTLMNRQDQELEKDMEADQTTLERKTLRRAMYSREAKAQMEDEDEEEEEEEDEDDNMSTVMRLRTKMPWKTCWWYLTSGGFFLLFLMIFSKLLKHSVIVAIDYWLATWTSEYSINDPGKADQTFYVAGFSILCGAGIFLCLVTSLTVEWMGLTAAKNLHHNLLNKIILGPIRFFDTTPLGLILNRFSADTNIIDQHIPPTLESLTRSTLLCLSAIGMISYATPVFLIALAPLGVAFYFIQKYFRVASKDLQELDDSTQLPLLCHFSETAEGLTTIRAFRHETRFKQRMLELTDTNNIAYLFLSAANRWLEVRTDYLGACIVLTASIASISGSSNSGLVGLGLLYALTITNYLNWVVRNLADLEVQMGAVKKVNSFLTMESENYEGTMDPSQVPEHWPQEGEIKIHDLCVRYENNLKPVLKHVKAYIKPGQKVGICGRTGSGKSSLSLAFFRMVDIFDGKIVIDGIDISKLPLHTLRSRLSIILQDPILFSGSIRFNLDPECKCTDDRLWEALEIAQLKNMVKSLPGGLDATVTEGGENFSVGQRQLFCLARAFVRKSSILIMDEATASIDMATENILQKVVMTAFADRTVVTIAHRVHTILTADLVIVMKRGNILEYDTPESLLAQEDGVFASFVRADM
Chain of smooth muscle KATP channels (Q63664 whole entry partner): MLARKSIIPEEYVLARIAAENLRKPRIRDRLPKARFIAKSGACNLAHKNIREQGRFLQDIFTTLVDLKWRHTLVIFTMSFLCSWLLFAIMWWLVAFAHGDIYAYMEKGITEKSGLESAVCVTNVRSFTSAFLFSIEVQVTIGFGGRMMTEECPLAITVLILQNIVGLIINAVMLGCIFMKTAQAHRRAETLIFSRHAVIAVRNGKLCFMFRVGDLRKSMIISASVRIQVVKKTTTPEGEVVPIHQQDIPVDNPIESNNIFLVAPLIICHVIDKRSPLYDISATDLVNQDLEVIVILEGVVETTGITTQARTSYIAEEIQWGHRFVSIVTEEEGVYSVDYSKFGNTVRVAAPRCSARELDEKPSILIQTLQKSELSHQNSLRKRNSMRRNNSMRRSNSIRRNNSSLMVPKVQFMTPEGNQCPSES

EC50 [1]	SMILES	Maximal Response (% P1075) [1]	Index [2]	Efficacy (% P1075) [2]	pD2 [2]	opener of smooth muscle KATP channels [3]	elimination of the stimulated twitch ([2]; dose dependent over 10^-9 to 10^-5 M)
10000 nM	Cc1cccc(C2C3=C(CCCC3=O)Nc3ccnn32)c1 (stereo not drawn) [Example 13, 9-(3-methylphenyl)-5,6,7,9-tetrahydropyrazolo[5,1-b]quinazolin-8(4H)-one]	50 % P1075	–	–	–	–	–
20 nM	O=C1CCCC2=C1C(c1ccc(F)c(Br)c1)n1nccc1N2 (single isomer, unassigned; (+)) [Example 16, (+) 9-(3-bromo-4-fluorophenyl)-5,6,7,9-tetrahydropyrazolo [5,1-b]quinazolin-8(4H)-one]	105 % P1075	0.28	95 % P1075	6.34	–	–
31 nM	O=C1CCCC2=C1C(c1ccc(F)c(Br)c1)n1nccc1N2 (stereo not drawn) [Example 1]	87 % P1075	0.26	96 % P1075	6.47	–	–
51 nM	O=C1CCCC2=C1C(c1ccc(F)c(Br)c1)n1nccc1N2 (single isomer, unassigned; (-)) [Example 15, (-) 9-(3-bromo-4-fluorophenyl)-5,6,7,9-tetrahydropyrazolo[5,1-b]quinazolin-8(4H)-one]	103 % P1075	0.21	100 % P1075	6.67	–	–
–	CCC(C)(C)NC(=NC#N)Nc1cccnc1 [Example P1075, N"-cyano-N-(tert-pentyl)-N'-(3-pyridinyl)quanidine, reference compound]	–	–	–	–	potent opener	completely eliminated the stimulated twitch
130 nM	O=C1CCCC2=C1C(c1ccc(Cl)c(Cl)c1)n1nccc1N2 (stereo not drawn) [Example 6, 9-(3,4-dichlorophenyl)-5,6,7,9-tetrahydropyrazolo [5,1-b]quinazolin-8(4H)-one]	95 % P1075	–	–	–	–	–
910 nM	O=S1(=O)CCCC2=C1C(c1ccc(F)c(Br)c1)n1nccc1N2 (stereo not drawn) [Example 17]	89 % P1075	–	–	–	–	–
290 nM	O=C1CCCC2=C1C(c1ccc(F)c(C(F)(F)F)c1)n1nccc1N2 (stereo not drawn) [Example 10, 9-[4-fluoro-3-(trifluoromethyl)phenyl]-5,6,7,9-tetrahydropyrazolo[5,1-b]quinazolin-8(4H)-one]	100 % P1075	–	–	–	–	–
187 nM	O=C1CCCC2=C1C(c1ccc(Cl)c(C(F)(F)F)c1)n1nccc1N2 (stereo not drawn) [Example 9, 9-[4-chloro-3-(trifluoromethyl)phenyl]-5,6,7,9-tetrahydropyrazolo[5,1-b]quinazolin-8(4H)-one]	94 % P1075	–	–	–	–	–
24000 nM	O=C1CCCC2=C1C(c1cccc3ccccc13)n1nccc1N2 (stereo not drawn) [Example 3, 9-(1-naphthyl)-5,6,7,9-tetrahydropyrazolo[5,1-b]quinazolin-8(4H)-one]	34 % P1075	–	–	–	–	–
550 nM	O=C1CCCC2=C1C(c1cccc(Br)c1)n1nccc1N2 (stereo not drawn) [Example 7, 9-(3-bromophenyl)-5,6,7,9-tetrahydropyrazolo[5,1-b]quinazolin-8(4H)-one]	98 % P1075	–	–	–	–	–
258 nM	O=C1OCC2=C1C(c1ccc(F)c(Br)c1)n1nccc1N2 (stereo not drawn) [Example 14, 8-(3-bromo-4-fluorophenyl)-5,8-dihydro-4H,7H-furo[3,4-d]pyrazolo[1,5-a]pyrimidin-7-one]	89 % P1075	–	–	–	–	–
122 nM	O=C1CCCC2=C1C(c1ccc(Br)c(Br)c1)n1nccc1N2 (stereo not drawn) [Example 5, 9-(3 4-dibromophenyl)-5,6,7,9-tetrahydropyrazolo[5,1-b]quinazolin-8(4H)-one]	98 % P1075	–	–	–	–	–
429 nM	O=C1CCCC2=C1C(c1ccc3ccccc3c1)n1nccc1N2 (stereo not drawn) [Example 4, 9-(2-naphthyl)-5,6,7,9-tetrahydropyrazolo[5,1-b]quinazolin-8(4H)-one]	96 % P1075	–	–	–	–	–
2860 nM	N#Cc1cccc(C2C3=C(CCCC3=O)Nc3ccnn32)c1 (stereo not drawn) [Example 12, 9-(3-cyanophenyl)-5,6,7,9-tetrahydropyrazolo[5,1-b]quinazolin-8(4H)-one]	85 % P1075	–	–	–	–	–
40 nM	O=C1CSCC2=C1C(c1ccc(F)c(Br)c1)n1nccc1N2 (stereo not drawn) [Example 2, 9-(3-bromo-4-fluorophenyl)-5,9-dihydro-4H-pyrazolo[1,5-a]thiopyrano[3,4-d]pyrimidin-8(7H)-one]	100 % P1075	–	–	–	–	–
1120 nM	O=C1CCCC2=C1C(c1cccc(Cl)c1)n1nccc1N2 (stereo not drawn) [Example 8, 9-(3-chlorophenyl)-5,6,7,9-tetrahydropyrazolo[5,1-b]quinazolin-8(4H)-one]	92 % P1075	–	–	–	–	–
1710 nM	O=C1CCCC2=C1C(c1cccc(OC(F)(F)F)c1)n1nccc1N2 (stereo not drawn) [Example 11, 9-[3-(trifluoromethoxy)phenyl]-5,6,7,9-tetrahydropyrazolo[5,1-b]quinazolin-8(4H)-one]	90 % P1075	–	–	–	–	–
